The results in this text go back to patent publication US20160223527A1, “An Immunological Assay To Detect And Quantify Acetylamantadine” (BIOMARK TECHNOLOGIES INC, priority 2013, published 2016).

For one experiment, the system named is serum at 1:200 dilution. As to the kind of experiment: Acetylamantadine competitive ELISA using serum at 1:200 dilution (FIG. 5). As to conditions: serum 1:200; coating 2 ug/ml streptavidin and 6 ng/ml biotinylated acetylamantadine; tested 0.025 to 250 ng/ml. The class given is binding, rabbit. How it is done:
It will accordingly be understood by a person skilled in the art that the immunological assay disclosed herein may be used to detect or quantify acetylamantadine in a patient who has taken a small dose of amantadine. This is shown in FIG. 5 which illustrates the results of an acetylamandine competitive ELISA with signal reading against acetylamantadine competitive concentration. The ELISA plate coating was 2 ug/ml streptavidin and 6 ng/ml biotinylated acetylamantadine. The competition ELISA using serum at 1:200 dilution against acetylamantadine ranging from 0.025 ng/ml to 250 ng/ml. Complete inhibition inhibition occurs near 100 ng/ml of soluble acetylamantadine. The detection limit (sensitivity) is near 0.5 ng/ml to 1.0 ng/ml The quantification of acetylamantadine can be used to quantify SSAT activity and elevated SSAT activity is an indication of diseases including, but not limited, to inflammations and cancers.

Experiment [1] has as its target anti-acetylamantadine affinity-purified antibodies absorbed with amantadine. The experiment is described as follows: Competitive ELISA with affinity-purified antibodies against acetylamantadine absorbed with amantadine. The class given is binding, rabbit. Conditions: soluble competitor incubated one hour with antibodies; plates coated with streptavidin and biotinylated acetylamantadine 2 ng/mL; FIG. 2. How it is done: The affinity-purified antibodies against acetylamantadine were flowed over a column of cyanogen-bromide coupled agarose beads conjugated with amantadine and the peak of IgG was taken.
Enzyme-linked immunosorbent assay (ELISA) plates were coated with the biotin-binding protein streptavidin at 2 μg/mL and blocked with skim milk. The ELISA plates were then washed with phosphate-buffered saline with an automated washer. Biotinylated acetylamantadine at 2 ng/mL was added to the streptavidin-coated ELISA plates so that acetylamantadine was bound to the streptavidin. The ELISA plates were then washed to remove the free biotinylated acetylamantadine. The soluble acetylamantadine or the amatidine was titrated in a separate 96-well plate and incubated for an hour with a small, previously determined concentration of anti-acetylamantadine affinity-purified antibodies absorbed with amantadine that gives a clear signal in the ELISA plates coated with acetylamantadine. […]
The ELISA was incubated for two hours and then the ELISA was developed by adding goat antibodies against rabbit IgG conjugated with alakine phosphatase. The substrate was added and the ELISA developed by standard methods and the optical densities were assayed by an ELISA reader and are shown in FIG. 1. […] If one makes quadruplicate assays of samples of urine, one can accurately quantify acetylamantadine in the assay. […]
Background: An ELISA detects its analyte on a solid surface through an enzyme-linked reagent.

For experiment [2], the target named is affinity-purified antibodies against acetylamantadine. The experiment is described as follows: Competitive ELISA with affinity-purified antibodies against acetylamantadine, not absorbed with amantadine. The experiment is classed as binding, rabbit. As to conditions: FIG. 3.
For experiment [3], the target named is serum of a rabbit immunized repeatedly against acetylamantadine. As to the kind of experiment: Competitive ELISA with serum of a rabbit immunized repeatedly against acetylamantadine. The experiment is classed as binding. Conditions: dilution of serum; FIG. 4. As for the experimental part:
A New Zealand white rabbit was immunized intramuscularly with 250 μg of the acetylamantadine-ovalbumin conjugate emulsified in complete Freund's adjuvant. The rabbit was boosted multiple times with acetylamantadine-ovalbumin conjugate, twice with 100 μg of acetylamantadine-conjugate keyhole-limpet hemocyanin and once with 4 pg of avidin coupled with an excess of biotinylated acetylamantadine with alum as an adjuvant. The rabbit was boosted with 100 μg of the acetylamantadine-ovalbumin conjugate 14 days before the rabbit was euthanized and bled out.
The rabbit blood was allowed to clot and the sera were collected. […]
Enzyme-linked immunosorbent assay (ELISA) plates were coated with the biotin-binding protein streptavidin at 2 μg/mL and blocked with skim milk. […] The soluble acetylamantadine or the amatidine was titrated in a separate 96-well plate and incubated for an hour with a small, previously determined concentration of anti-acetylamantadine affinity-purified antibodies absorbed with amantadine that gives a clear signal in the ELISA plates coated with acetylamantadine. […]
The ELISA was incubated for two hours and then the ELISA was developed by adding goat antibodies against rabbit IgG conjugated with alakine phosphatase. The substrate was added and the ELISA developed by standard methods and the optical densities were assayed by an ELISA reader and are shown in FIG. 1. […]

As for `CC(=O)NC12CC3CC(CC(C3)C1)C2` [acetylamantadine], the “concentration at which complete inhibition occurs” value in the experiment on serum at 1:200 dilution was about 100 ng/mL. For the same molecule, the “concentration giving significant inhibition (50%) of the binding in the ELISA” value is about 400 pg/mL in experiment [1], about 1.3 ng/mL in experiment [2] and about 300 pg/mL in experiment [3].

For the molecule `NC12CC3CC(CC(C3)C1)C2` [amantadine], the “concentration giving significant inhibition (50%) of the binding in the ELISA” value in experiment [1] was determined as 4e+07 pg/mL; in experiment [2], 100000 ng/mL; in experiment [3] it was 1e+08 pg/mL.
